From patent US20060057156A1, “Materials and methods for inductions of immune tolerance” (priority 2002, published 2006)
Like-named read-outs stand apart in the source and are kept apart here.

Tests used:
[1] = tested on: PBMC from EBV seropositive donors; test: Suppression of proliferative and cytokine responses to mitogen, antigens and allergens; assay type: cell-based, human; conditions: three EBV seropositive donors, FIG. 6
[2] = tested on: PBMC from EBV seropositive donors; assay type: cell-based, human; conditions: for IL-10 secretion by PBMC: EBV seropositive donors, peptides at 15 μg/ml, ELISA five days after stimulation; for gamma-IFN induction: control peptides of FIG. 6, seropositive donors

Substance | effect on proliferative and gamma-IFN responses against recall antigen (PPD) [1] | IL-10 secretion by PBMC [2] | further results
FLGIVLFIFGCLLVLGIWIY [P22] | inhibit proliferative responses | IL-10 inducing | –
HDPLPQDPDNTDDNGPQDPD [P56] | – | – | gamma-IFN induction [2]: gamma-IFN inducing
ILIIFIFRRDLLCPLGALCI [P14] | – | shown to induce IL-10 | –
LFIFGCLLVLGIWIYLLEML [P23] | inhibit proliferative responses | IL-10 inducing | –
LILLIIALYLQQNWWTLLVD [P31] | inhibit proliferative responses | IL-10 inducing | –
LLFWLYIVMSDWTGGALLVL [P8] | – | shown to induce IL-10 | –
LLLLALLFWLYIVMSDWTGG [P7] | inhibit proliferative responses | IL-10 inducing | IL-10 secretion by PBMC ([2]; listed as peptide 7): one of many effective Tr1 IL-10 inducers
LLLMITLLLIALWNLHGQAL [P18] | inhibit proliferative responses | IL-10 inducing | –
LLWLLLFLAILIWMYYHGQR [P35] | inhibit proliferative responses | IL-10 inducing | –
PRGPPLSSSLGLALLLLLLA [P4] | inhibit proliferative responses | IL-10 inducing | percentage of EBV seropositive donors whose PBMC responded with IL-10 ([2]; 20 seropositive donors, peptide 15 μg/ml): 80%
QQNWWTLLVDLLWLLLFLAI [P33] | – | – | gamma-IFN induction [2]: gamma-IFN inducing
TIWQLLAFFLAFFLDLILLY [P28] | – | – | gamma-IFN induction [2]: gamma-IFN inducing
concanavalin A [Con A, reference compound] | – | – | response pattern to control mitogen / recall antigen ([2]; regardless of EBV serological status): induced responses dominated by proliferation and γ-IFN production
